Experimental data from paper PMC11530689, “Anti colorectal cancer activity and in silico studies of novel pyridine nortopsentin analog as cyclin dependent kinase 6 inhibitor” (Scientific Reports, 2024).

What was measured:
[1] = system: CDK2 gene expression; experiment: Gene expression by quantitative real-time PCR, CDK2; assay type: cell-based, human; conditions: IC50 dose, 48 h, normalized to GAPDH, vs control
Method: The cells were seeded in a six-well plate at a concentration of 3 × 10^5 cells/well. After a 24 h incubation, the IC50 dose of active compound 4i was applied to each well for 48 h. The cells were collected and centrifuged at 2500 rpm for 15 min at 4 °C. The total RNA isolation kit (RNeasy extraction kit—QIAGEN) was used to isolate RNA according to the manufacturer’s instructions.
Gene expression analysis by quantitative real-time PCR. The levels of gene expression of CDK2, CDK4 and CDK6 were determined using iScript One-Step RT-PCR kit with SYBR Green (BIORAD) according to the manufacturer protocol. The sequences of the used primers are illustrated in Table 4. The genes expression was normalized to GAPDH as the housekeeping gene. The protocol used for cDNA synthesis was: 10 min at 50 °C, iScript Reverse transcriptase inactivation: 5 min at 95 °C and PCR cycling and detection (30 to 45 cycles): 10 s at 95 °C and 30 s at 55 °C to 60 °C.

[2] = system: OVCAR-8; experiment: NCI 60 cell line screen; assay type: cell-based; conditions: OVCAR-8, Ovarian Cancer; single concentration 10^−5 M
Method in brief: (§1)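 Each of the sixty NCI cancer lines was challenged with compound at 10^-5 M, a single dose, for cytotoxicity evaluation.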

[3] = system: NCI/ADR-RES; experiment: NCI 60 cell line screen; assay type: cell-based; conditions: Ovarian Cancer, single concentration 10^−5 M
Method in brief: as §1

[4] = system: UO-31; experiment: NCI 60 cell line screen; assay type: cell-based; conditions: UO-31, Renal Cancer; single concentration 10^−5 M
Method in brief: as §1

[5] = system: A498; experiment: NCI 60 cell line screen; assay type: cell-based; conditions: A498, Renal Cancer; single concentration 10^−5 M
Method in brief: as §1

[6] = system: EKVX; experiment: NCI 60 cell line screen; assay type: cell-based; conditions: Non-Small Cell Lung Cancer, single concentration 10^−5 M
Method in brief: as §1

[7] = system: SN12C; experiment: NCI 60 cell line screen; assay type: cell-based; conditions: Renal Cancer, single concentration 10^−5 M
Method in brief: as §1

[8] = system: SF-268; experiment: NCI 60 cell line screen; assay type: cell-based; conditions: SF-268, CNS Cancer; single concentration 10^−5 M
Method in brief: as §1

[9] = system: ACHN; experiment: NCI 60 cell line screen; assay type: cell-based; conditions: Renal Cancer, single concentration 10^−5 M
Method in brief: as §1

[10] = system: HOP-92; experiment: NCI 60 cell line screen; assay type: cell-based; conditions: HOP-92, Non-Small Cell Lung Cancer; single concentration 10^−5 M
Method in brief: as §1

[11] = system: OVCAR-3; experiment: NCI 60 cell line screen; assay type: cell-based; conditions: OVCAR-3, Ovarian Cancer; single concentration 10^−5 M
Method in brief: as §1

[12] = system: KM12; experiment: NCI 60 cell line screen; assay type: cell-based; conditions: KM12, Colon Cancer; single concentration 10^−5 M
Method in brief: as §1

[13] = system: K-562; experiment: NCI 60 cell line screen; assay type: cell-based; conditions: K-562, Leukemia; single concentration 10^−5 M
Method in brief: as §1

[14] = system: IGROV1; experiment: NCI 60 cell line screen; assay type: cell-based; conditions: IGROV1, Ovarian Cancer; single concentration 10^−5 M
Method in brief: as §1

[15] = system: SW-620; experiment: NCI 60 cell line screen; assay type: cell-based; conditions: SW-620, Colon Cancer; single concentration 10^−5 M
Method in brief: as §1

[16] = system: SNB-19; experiment: NCI 60 cell line screen; assay type: cell-based; conditions: SNB-19, CNS Cancer; single concentration 10^−5 M
Method in brief: as §1

[17] = system: HCT-15; experiment: NCI 60 cell line screen; assay type: cell-based; conditions: HCT-15, Colon Cancer; single concentration 10^−5 M
Method in brief: as §1

[18] = system: CCRF-CEM; experiment: NCI 60 cell line screen; assay type: cell-based; conditions: Leukemia, single concentration 10^−5 M
Method in brief: as §1

[19] = system: SF-539; experiment: NCI 60 cell line screen; assay type: cell-based; conditions: SF-539, CNS Cancer; single concentration 10^−5 M
Method in brief: as §1

[20] = system: SR; experiment: NCI 60 cell line screen; assay type: cell-based; conditions: Leukemia, single concentration 10^−5 M
Method in brief: as §1

[21] = system: SK-MEL-5; experiment: NCI 60 cell line screen; assay type: cell-based; conditions: SK-MEL-5, Melanoma; single concentration 10^−5 M
Method in brief: as §1

[22] = system: MCF7; experiment: NCI 60 cell line screen; assay type: cell-based; conditions: MCF7, Breast Cancer; single concentration 10^−5 M
Method in brief: as §1

[23] = system: HOP-62; experiment: NCI 60 cell line screen; assay type: cell-based; conditions: HOP-62, Non-Small Cell Lung Cancer; single concentration 10^−5 M
Method in brief: as §1

[24] = system: MALME-3M; experiment: NCI 60 cell line screen; assay type: cell-based; conditions: Melanoma, single concentration 10^−5 M
Method in brief: as §1

[25] = system: 60 different cancer cell lines; experiment: NCI screen against 60 cancer cell lines, overall; assay type: cell-based; conditions: single concentration 10^−5 M
Method: The cytotoxic activity of nortopsintin analogs (4a-4j) was determined by the national cancer institute (NCI, Bethesda, Maryland, USA) against 60 different cancer cell lines at a single concentration of (10^-5 M). For the determination of IC50 value, we used MTT assay kit (Sigma) according to the manufacturer's protocol. HCT-116 cells were seeded into a 96-well plate at a concentration of 20,000 cells/well. After 24 h, the media was aspirated and replaced with serum-free media containing serial dilutions of the 4i compound. […] The percentage of cytotoxicity was calculated using the following equation: % Cytotoxicity = [1 - ([…])] × 100.

**Q.** With `CN(C)c1ccc(-c2cc(-c3c[nH]c4ccccc34)nc(-c3c[nH]c4ccccc34)c2C#N)cc1` [4i] as the molecule, how does the “Relative gene expression of CDK2” value [1] read?
**A.** significantly suppress the expression

**Q.** What about the Growth % [2] of the same molecule?
**A.** 96.39%

**Q.** And the Growth % [3]?
**A.** 90.91%

**Q.** And the Growth % [4]?
**A.** 72.88%

**Q.** And the Growth % [5]?
**A.** 98.45%

**Q.** And the Growth % [6]?
**A.** 93.75%

**Q.** What about the Growth % [7] of the same molecule?
**A.** 92.07%

**Q.** What about the Growth % [8] of the same molecule?
**A.** 96.47%

**Q.** What about the Growth % [9] of the same molecule?
**A.** 98.60%

**Q.** And the Growth % [10]?
**A.** 104.62%

**Q.** And the Growth % [11]?
**A.** 91.03%

**Q.** What about the Growth % [12] of the same molecule?
**A.** 58.37%

**Q.** What about the Growth % [13] of the same molecule?
**A.** 39.74%

**Q.** And the Growth % [14]?
**A.** 74.28%

**Q.** What about the Growth % [15] of the same molecule?
**A.** 46.63%

**Q.** What about the Growth % [16] of the same molecule?
**A.** 79.65%

**Q.** What about the Growth % [17] of the same molecule?
**A.** 44.65%

**Q.** What about the Growth % [18] of the same molecule?
**A.** 78.55%

**Q.** And the Growth % [19]?
**A.** 75.80%

**Q.** What about the Growth % [20] of the same molecule?
**A.** 32.38%

**Q.** And the Growth % [21]?
**A.** 96.50%

**Q.** And the Growth % [22]?
**A.** 49.30%

**Q.** What about the Growth % [23] of the same molecule?
**A.** 82.30%

**Q.** What about the Growth % [24] of the same molecule?
**A.** 97.41%

**Q.** What about the “cytotoxic / antiproliferative activity over the panel” value [25] of the same molecule?
**A.** highest level of cytotoxic activity
